Here are results for 43 molecules from the Deep4Chem optical property database.

The nature of the series: photoluminescence quantum yield (fraction); solvent given as SMILES.

As to `C(/C=C/c1ccc(N(c2ccccc2)c2ccccc2)cc1)=C\c1ccncc1`, the photoluminescence quantum yield is, setting by setting: (in C1COCCO1) 0.3; (in CC#N) 0.16; (in CCCCCCC) 0.4; (in CO) 0.02.
As for `CCC1=C(C)C(=O)n2c1cc1c(C)c(CC(=O)O)c(C)n1c2=O`, the photoluminescence quantum yield by setting is: (in CO) 0.91; (in CS(C)=O) 1; (in ClC(Cl)Cl) 0.96; (in c1ccccc1) 0.88.
Where the note is “in c1ccccc1”, `Cc1nc2c(ccc3ccccc32)oc1=O` returned a photoluminescence quantum yield of 0.198.
With `CC(=O)Nc1ccc(/C=C2\OC(=O)c3cc(N)ccc32)cc1`, the photoluminescence quantum yield runs as follows: (in CC#N) 0.015; (in CC(C)=O) 0.02; (in CC(C)CO) 0.032; (in CC(C)O) 0.032; (in CCCO) 0.03; (in CCO) 0.028. The photoluminescence quantum yield by setting is: (in CCOC(C)=O) 0.023; (in CCOCC) 0.04; (in CO) 0.02.
As for `Clc1nc(Nc2ccccc2)nc(Nc2ccc3cc4ccccc4cc3c2)n1`, the photoluminescence quantum yield by setting is: (in C1COCCO1) 0.42; (in CC#N) 0.18; (in CCCCOCCCC) 0.35; (in CCOC(C)=O) 0.23.
Turning to `c1cc2c([nH]c3c4[nH]c5sccc5c4c4nsnc4c23)s1`, the photoluminescence quantum yield is, setting by setting: (in C1CCOC1) 0.38; (in CCOC(C)=O) 0.34; (in CN(C)C=O) 0.33; (in Cc1ccccc1) 0.42; (in ClCCl) 0.27.
In the case of `CCCCN1c2ccccc2Sc2cc(/C=C/c3nc4nc5ccccc5nc4s3)ccc21`, the photoluminescence quantum yield reads like this: (in C1CCCCC1) 0.27; (in C1CCOC1) 0.01; (in C1COCCO1) 0.07; (in CC#N) 0; (in CC(C)=O) 0.001; (in CC(C)O) 0. Further, the photoluminescence quantum yield was found to be 0.02 (in CCOC(C)=O); 0.05 (in CCOCC); 0 (in CO); 0 (in CS(C)=O); 0.08 (in Cc1ccccc1); 0.008 (in ClCCl).
For the molecule `CCC1=C(C)C2=Cc3c4ccccc4c4n3[B-](c3cc[n+](C)cc3)(Oc3ccccc3-4)[N+]2=C1C` (stereo not drawn), the photoluminescence quantum yield reads like this: (in CO) 0.58; (in CS(C)=O) 0.63.
Consider `O=C(c1ccncc1)c1ccc(-n2c3ccccc3c3ccccc32)cc1`, for which the photoluminescence quantum yield reads like this: (in Cc1ccccc1) 0.012; (in c1cc(-c2cccc(-n3c4ccccc4c4ccccc43)c2)cc(-n2c3ccccc3c3ccccc32)c1) 0.38.
Molecule `CC1(C)c2cc(-n3c4ccccc4c4ccccc43)ccc2N(c2ccc(-c3cc(-c4ccccc4)nc(-c4ccccc4)n3)cc2)c2ccc(-n3c4ccccc4c4ccccc43)cc21` came in with a photoluminescence quantum yield (in O=P(c1ccccc1)(c1ccccc1)c1ccccc1Oc1ccccc1P(=O)(c1ccccc1)c1ccccc1) of 0.81.
On to `F[B-]1(F)OC(c2cc3c4c(c2)CCCN4CCC3)=Cc2cccc[n+]21`, for which the photoluminescence quantum yield (in ClC(Cl)Cl) worked out at 0.57.
For the setting “in CC#N”, `CCOC(=O)c1c2c3c(ccc(Br)c3c3cc4ccccc4cc13)N(C)C2=O` had a photoluminescence quantum yield of 0.45.
As to `CC(C)(C)c1ccc2c(c1)c1cc(C(C)(C)C)ccc1n2-c1ccc(N(c2ccc(-c3ccc(-c4ccc(-c5ccc(-c6ccc(N(c7ccc(-n8c9ccc(C(C)(C)C)cc9c9cc(C(C)(C)C)ccc98)cc7)c7ccc(-n8c9ccc(C(C)(C)C)cc9c9cc(C(C)(C)C)ccc98)cc7)cc6)s5)c5nsnc45)s3)cc2)c2ccc(-n3c4ccc(C(C)(C)C)cc4c4cc(C(C)(C)C)ccc43)cc2)cc1`, for the setting “in ClCCl”, the photoluminescence quantum yield is 0.08.
`COCCOCCOCCOCC(COCCOCCOCCOC)Oc1cc(/C=C/c2ccc(C=C3C(=O)c4ccccc4C3=O)cc2)c(OC(COCCOCCOCCOC)COCCOCCOCCOC)cc1/C=C/c1ccc(C=C2C(=O)c3ccccc3C2=O)cc1`: the photoluminescence quantum yield (in ClCCl) is 0.23.
Where the note is “in Cc1ccccc1”, `C(#Cc1ccc2ncsc2c1)c1ccc(N(c2ccccc2)c2ccccc2)cc1` came in with a photoluminescence quantum yield of 0.23.
With `CC(C)Nc1cc2c(cc1F)c(=O)c1cc(F)c(NC(C)C)cc1n2C(C)C`, under “in CCO”, the photoluminescence quantum yield worked out at 0.32.
Take `CCN(CC)c1ccc(/C=N/Nc2ccc(C#N)cc2)c(O)c1`: the photoluminescence quantum yield (in CO) stood at 0.21.
`CCC12C(=C3C(=C4c5ccc(-c6ccc(C(C)=O)s6)cc5S(=O)(=O)C41CC)C(F)(F)C(F)(F)C3(F)F)c1ccc(-c3ccc(C(C)=O)s3)cc1S2(=O)=O` (stereo not drawn) returned a photoluminescence quantum yield (in C1COCCO1) of 0.61.
Under “in CC#N”, `COC(=O)[C@]12N=N[C@](C(=O)OC)(C3C4C5C4C5C31)C1C3C4C3C4C12` (stereo partly drawn) yielded a photoluminescence quantum yield of 0.039.
On to `CCCCCCC(CCCCCC)N1C(=O)c2cccc3c(-c4ccccc4)ccc(c23)C1=O`, for which the photoluminescence quantum yield reads like this: (in CCCCCC) 0.076; (in CCCCCCCCCCCCCC) 0.094; (in CCCCCCCCCCCO) 0.76; (in CCCCO) 0.95; (in CN(C)C=O) 0.74; (in Cc1ccccc1) 0.5. Under “in ClC(Cl)Cl”, this molecule yielded a photoluminescence quantum yield of 0.78.
`c1cc2ccc3ccc4cc3c2cc1c1ccc2ccc3ccc(cc3c2c1)c1ccc2c(c1)c1cc4ccc1[C@]13OCCO[C@]21OCCO3` gave a photoluminescence quantum yield (in Cc1ccccc1) of 0.78.
Molecule `CC(C)(C)c1ccc2c(c1)c1cc(C(C)(C)C)ccc1n2-c1ccc(C#Cc2ccc3c4ccc(C#Cc5ccc(C=C(C#N)C#N)cc5)cc4n(-c4ccc(C(F)(F)F)cc4)c3c2)cc1` registered a photoluminescence quantum yield (in ClCCl) of 0.12.
Where the note is “in CCO”, `Nc1ccc2nc3c4ccccc4c(=[NH2+])cc-3oc2c1` registered a photoluminescence quantum yield of 0.582.
`N#Cc1ccc(-c2cnc3cccc(-c4ccccc4)n23)cc1` had a photoluminescence quantum yield (in ClCCl) of 0.19.
In turn, `COc1ccc(N(c2ccccc2)c2ccccc2)cc1` displayed a photoluminescence quantum yield (in Cc1ccccc1) of 0.03.
With `O=[N+]([O-])c1ccc(/C=C/c2cn(S(=O)(=O)c3ccccc3)c3ccccc23)cc1`, the photoluminescence quantum yield runs as follows: (in CC#N) 0.066; (in CCCCCCC) 0.004; (in CO) 0.002; (in O) 0.003.
In the case of `B1C=Cc2ccc3ccccc3c2N1`, the photoluminescence quantum yield (in C1CCCCC1) was 0.61.
The molecule `CCN(CC)c1ccc(-n2c(C)ccc2C)cc1` came in with a photoluminescence quantum yield (in CC#N) of 0.24 and a photoluminescence quantum yield (in CCCCCC) of 0.17.
Turning to `O=C1c2ccccc2C2=Cc3ccccc3B(O)N12`, the photoluminescence quantum yield worked out at 0.97 (in CC#N), 0.74 (in CO), 0.12 (in CS(C)=O) and 1 (in ClC(Cl)Cl).
For the molecule `CC1(C)c2ccccc2N(c2ccc3c(c2)-c2cc(N4c5ccccc5C(C)(C)c5ccccc54)ccc2P3(=O)c2ccccc2)c2ccccc21`, the photoluminescence quantum yield is, setting by setting: (in Cc1ccccc1) 0.55; (in c1ccc2c(c1)c1ccccc1n2-c1ccc(-c2ccc(-n3c4ccccc4c4ccccc43)cc2)cc1) 0.56.
Under “in CCO”, `Cc1ccc(C(=O)OCc2ccc3c4cccc5cccc(c6cccc2c63)c54)cc1` had a photoluminescence quantum yield of 0.93.
Turning to `COC(=O)c1cc(=O)n(C)c2cc(-c3ccc4c(c3)OCCO4)sc12`, the photoluminescence quantum yield is 0.68 (in CC#N) and 0.83 (in ClCCl).
`O=C([O-])c1ccccc1-c1c2cc(Br)c(=O)c(Br)c-2oc2c(Br)c([O-])c(Br)cc12` yielded a photoluminescence quantum yield (in CC(C)O) of 0.76, a photoluminescence quantum yield (in CCO) of 0.69, a photoluminescence quantum yield (in CO) of 0.6 and a photoluminescence quantum yield (in O) of 0.2.
Consider `CNCCCN1c2ccccc2CCc2ccccc21`, for which the photoluminescence quantum yield reads like this: (in CC#N) 0.009; (in CO) 0.01; (in O) 0.012.
As to `CCN(CC)c1ccc2c(C#N)c(/C=C(\C#N)c3nc4ccccc4o3)c(=O)oc2c1`, the photoluminescence quantum yield worked out at 0.0328 (in C1COCCO1); 0.0658 (in CC#N); 0.0144 (in CCO); 0.0434 (in CCOC(C)=O); 0.0121 (in CO); 0.101 (in Cc1ccccc1). The photoluminescence quantum yield (in ClCCl) is 0.105.
On to `c1cc(N2CCCC2)ccn1`, for which the photoluminescence quantum yield by setting is: (in CC1CCCCC1) 0.09; (in ClC(Cl)Cl) 0.03.
For `COC(=O)c1[nH]c(-c2ccccc2)c2nnc3ccsc3c12`, the photoluminescence quantum yield (in ClCCl) turned out to be 0.111.
With `[C-]#[N+]c1ccc(-c2ccc(N)cc2)cc1`, the photoluminescence quantum yield is, setting by setting: (in C1CCCCC1) 0.66; (in C1CCOC1) 0.78; (in C1COCCO1) 0.79; (in CC#N) 0.65; (in CC(C)=O) 0.52; (in CCCCCC) 0.76. The photoluminescence quantum yield was 0.67 (in CCOC(C)=O); 0.78 (in CN(C)C=O); 0.1 (in CO); 0.77 (in CS(C)=O); 0.68 (in Cc1ccccc1); 0.2 (in ClC(Cl)Cl). The photoluminescence quantum yield was determined as 0.75 (in ClCCl), 0.0088 (in O) and 0.06 (in c1ccncc1).
`O=C1c2ccc3c4ccc5c6c(ccc(c7ccc(c2c37)C(=O)N1c1ccc(Cl)cc1)c64)C(=O)N(c1ccc(Cl)cc1)C5=O` showed a photoluminescence quantum yield (in CN(C)C=O) of 0.84.
As for `COc1ccc(-c2ccc3c(c2)[Si](C)(C)c2cc(-c4ccc(OC)cc4)ccc2C=C3)cc1`, the photoluminescence quantum yield (in ClCCl) came to 0.93.
For the setting “in ClCCl”, `COC(=O)c1ccc(C2=C(/C=C/c3ccc(OC)cc3)O[B-](F)(F)[O+]=C2/C=C/c2ccc(OC)cc2)cc1` came in with a photoluminescence quantum yield of 0.43.
`Cc1cccc(-c2c3ccccc3cc3ccccc23)n1`: the photoluminescence quantum yield (in ClCCl) amounted to 0.48.
In turn, `CCCCc1cc2cccc[n+]2[b-]2ccc(-c3cc[b-]4c(c3)c(CCCC)cc3cccc[n+]43)cc21` yielded a photoluminescence quantum yield (in C1CCCCC1) of 0.05.
